In article PMC8494734 (Scientific Reports, 2021):

Columns and labels:
[1] = target: T1, recombinant NirK protein (MRA2164) (Mycobacterium tuberculosis, UniProt A5U4H6); experiment: biochemical; conditions: read-out: % inhibition at 5 mM
T1 construct: gene yfiH

[2] = target: T1, recombinant NirK protein (MRA2164)
O=NO = experiment: purified protein; conditions: pH 7.0; 37.0 °C

T1 sequence (A5U4H6 entry or part of it): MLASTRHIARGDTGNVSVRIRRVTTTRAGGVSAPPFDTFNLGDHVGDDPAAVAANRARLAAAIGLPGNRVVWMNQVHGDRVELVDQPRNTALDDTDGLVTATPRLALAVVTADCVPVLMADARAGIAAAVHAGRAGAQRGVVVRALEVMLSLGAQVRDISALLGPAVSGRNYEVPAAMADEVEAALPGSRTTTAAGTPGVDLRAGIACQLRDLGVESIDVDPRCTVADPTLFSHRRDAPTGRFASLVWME

Compound	% inhibition at 5 mM [2] [%]	other results
NC(=O)C1=CN([C@@H]2O[C@H](COP(=O)(O)OP(=O)(O)OC[C@H]3O[C@@H](n4cnc5c(N)ncnc54)[C@H](O)[C@@H]3O)[C@@H](O)[C@H]2O)C=CC1 [NADH]	–	inhibition at 5000 µM [1]: 92.3%
[N-]=[N+]=[N-] [azide]	95.16	–
O=[N+]([O-])O [nitrate]	47.40	–
recombinant NirK protein (MRA2164) (Mycobacterium tuberculosis H37Ra)	–	Km (O=NO): 17.16 mM
